From article PMC6615252, “The binding affinity of PTPN13’s tandem PDZ2/3 domain is allosterically modulated” (BMC Molecular and Cell Biology, 2019)
“And” between values parts separate entries of the source, which are not always exact repeats. Equal values may be shown once. “Also recorded” adds a separate entry of the source. Residues, ends and D or L forms follow the SMILES beside them.

Columns and labels:
[1] = target: PDZ3 domain of PTPN13; conditions: single PDZ3 domain; NMR titration, 298 K, pH 7.4, PBS, DTT added; ref [12]; read-out: dissociation constant KD, PDZ3; cited from earlier work
From the text: The observed differences for APC binding to PDZ2 versus tandem PDZ2/3 are not large yet still considerable.

[2] = target: T1, PDZ2 in PDZ2/3 tandem domain of PTPN13 (Mus musculus, UniProt Q64512); assay: NMR titration of PDZ2/3 tandem domain, PDZ2 resonances (PDZ2 in PDZ2/3); type: binding; conditions: final stoichiometric ratio APC:PDZ2/3 30:1
T1 construct: pGEX-2 T-PDZ2/3 (PTPN13 residues 1347–1580); GST (N, cleaved yes); made in house; host or cells: E. coli BL21(DE3)
T1 sequence (Q64512 1347-1580): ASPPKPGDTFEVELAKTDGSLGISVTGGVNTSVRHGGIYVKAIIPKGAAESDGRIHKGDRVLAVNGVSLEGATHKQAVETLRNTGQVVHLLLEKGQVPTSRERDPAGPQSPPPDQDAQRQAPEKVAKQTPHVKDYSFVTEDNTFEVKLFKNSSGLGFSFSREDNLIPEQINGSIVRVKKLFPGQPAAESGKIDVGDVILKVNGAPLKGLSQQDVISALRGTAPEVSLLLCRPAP
Procedure: (§1) We have applied multidimensional heteronuclear NMR spectroscopy in order to elucidate the binding affinities of the PDZ2 single domain and the tandem domain PDZ2/3 of PTPN13 for the chemically synthesized C-terminal dodecapeptides derived from APC and PRK2. The binding characteristics were analyzed in a titration series of the dodecamer peptides and ^15N isotopically-enriched PDZ2 and PDZ2/3 samples, respectively, and by monitoring the NMR chemical shift perturbations in a series of 2D ^1H-^15N heteronuclear single quantum coherence (HSQC) spectra with increasing ligand concentrations. It could be shown that all peptides bind to the canonical binding groove of PDZ domains (Figs. 1, 2, 3 and 4). […]
(§2) NMR spectra were acquired at 298 K on Bruker DRX 600 and AVANCE III HD 700 spectrometers. […] All data were processed with either NMRPipe and analyzed with NMR View or TopSpin (www.bruker.com). […] The interaction between PDZ2 and PDZ3 was analyzed upon titrating PDZ3 to isotopically ^15N-enriched PDZ2 at a molar ratio of 1:1 at 298 K by recording 2D ^1H-^15N-HSQC NMR spectra. […] The differences in backbone ^1H and ^15N NMR chemical shifts were monitored via 2D ^1H-^15N-HSQC NMR spectra. The weighted ^1HN and ^15N chemical shift differences were calculated according to the following equation [45, 47]: […]

[3] = target: T2, PDZ2 domain of PTPN13 (Mus musculus, UniProt Q64512); assay: NMR titration (2D 1H-15N-HSQC chemical shift perturbation) of 15N-enriched single PDZ2 domain with C-terminal dodecapeptides; type: binding; conditions: for NMR chemical shift perturbations of PDZ2 on peptide binding: 2D 1H-15N-HSQC, 298 K, pH 7.4
T2 construct: pGEX-2 T-PDZ2 (PTPN13 residues 1347–1450); GST (N, cleaved yes); made in house; host or cells: E. coli BL21(DE3)
T2 sequence (Q64512 1347-1450): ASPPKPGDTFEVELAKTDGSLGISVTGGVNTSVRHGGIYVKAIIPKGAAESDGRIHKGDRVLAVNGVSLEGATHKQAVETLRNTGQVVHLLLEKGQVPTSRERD
Procedure: (§3) We have applied multidimensional heteronuclear NMR spectroscopy in order to elucidate the binding affinities of the PDZ2 single domain and the tandem domain PDZ2/3 of PTPN13 for the chemically synthesized C-terminal dodecapeptides derived from APC and PRK2. The binding characteristics were analyzed in a titration series of the dodecamer peptides and ^15N isotopically-enriched PDZ2 and PDZ2/3 samples, respectively, and by monitoring the NMR chemical shift perturbations in a series of 2D ^1H-^15N heteronuclear single quantum coherence (HSQC) spectra with increasing ligand concentrations. It could be shown that all peptides bind to the canonical binding groove of PDZ domains (Figs. 1, 2, 3 and 4).
Bacterial expression plasmids pGEX-2 T-PDZ2 (PTPN13 residues 1347–1450), pGEX-2 T-PDZ3 (PTPN13 residues 1474–1580), and pGEX-2 T-PDZ2/3 (PTPN13 residues 1347–1580) were constructed by sub-cloning of PCR-generated PTPN13 cDNA fragments in-frame into appropriate pGEX-2 T vectors.
NMR spectra were acquired at 298 K on Bruker DRX 600 and AVANCE III HD 700 spectrometers. Typically, NMR samples contained 0.1–0.5 mM uniformly ^13C and/or ^15N-enriched protein in PBS buffer at pH 7.4 including 10% D2O [42–44]. All data were processed with either NMRPipe and analyzed with NMR View or TopSpin (www.bruker.com). […] The interaction between PDZ2 and PDZ3 was analyzed upon titrating PDZ3 to isotopically ^15N-enriched PDZ2 at a molar ratio of 1:1 at 298 K by recording 2D ^1H-^15N-HSQC NMR spectra. […] The differences in backbone ^1H and ^15N NMR chemical shifts were monitored via 2D ^1H-^15N-HSQC NMR spectra. The weighted ^1HN and ^15N chemical shift differences were calculated according to the following equation [45, 47]: […]
Averaged dissociation constants for the different complexes were calculated from least-squares fitting of the NMR chemical shift perturbations observed for several amino acids as a function of ligand concentration. NMR chemical shift perturbation data were analysed with the ORIGIN software package (www.originlab.com) as previously published. […]

[4] = test system: single PDZ2 domain of PTPN13; conditions: previous study; class I (APC) and III (RIL) ligands; ref [21]; cited from earlier work
From the text: Based on the results from the NMR chemical shift perturbation analysis and HADDOCK molecular docking calculations we conclude, that an allosteric effect modulates the APC-binding characteristics of PDZ2 from PTPN13 (Fig. 7). Although peptides rather than the corresponding full-length proteins have been used here, numerous studies have shown before that the last four to six carboxy-terminal amino acids are essential for ligand binding to PDZ domains.

[5] = target: T3, PDZ2/3 tandem domain of PTPN13 (Mus musculus, UniProt Q64512); assay: NMR titration of PDZ2/3 tandem domain with APC peptide, chemical shift perturbations and exchange regime; type: binding
T3 construct: pGEX-2 T-PDZ2/3 (PTPN13 residues 1347–1580); GST (N, cleaved yes); made in house; host or cells: E. coli BL21(DE3)
T3 sequence (Q64512 1347-1580): T1 sequence (Q64512 1347-1580)
Procedure: as §3
NMR spectra were acquired at 298 K on Bruker DRX 600 and AVANCE III HD 700 spectrometers. Typically, NMR samples contained 0.1–0.5 mM uniformly ^13C and/or ^15N-enriched protein in PBS buffer at pH 7.4 including 10% D2O [42–44]. All data were processed with either NMRPipe and analyzed with NMR View or TopSpin (www.bruker.com). The backbone assignments were obtained from the BioMagResBank accession numbers 15,199 (PDZ2/3) and 5131 (PDZ2). The interaction between PDZ2 and PDZ3 was analyzed upon titrating PDZ3 to isotopically ^15N-enriched PDZ2 at a molar ratio of 1:1 at 298 K by recording 2D ^1H-^15N-HSQC NMR spectra. […] The differences in backbone ^1H and ^15N NMR chemical shifts were monitored via 2D ^1H-^15N-HSQC NMR spectra. The weighted ^1HN and ^15N chemical shift differences were calculated according to the following equation [45, 47]: […]
Averaged dissociation constants for the different complexes were calculated from least-squares fitting of the NMR chemical shift perturbations observed for several amino acids as a function of ligand concentration. NMR chemical shift perturbation data were analysed with the ORIGIN software package (www.originlab.com) as previously published. The error for KD values was calculated from the individual fit of several significant chemical shift perturbations found for the amide resonances located in and/or next to the canonical PDZ binding cleft. […]

[6] = target: T4, PDZ3 in PDZ2/3 tandem domain of PTPN13 (Mus musculus, UniProt Q64512); assay: NMR titration of PDZ2/3 tandem domain, PDZ3 resonances (PDZ3 in PDZ2/3); type: binding; conditions: data not shown
T4 construct: pGEX-2 T-PDZ2/3 (PTPN13 residues 1347–1580); GST (N, cleaved yes); made in house; host or cells: E. coli BL21(DE3)
T4 sequence (Q64512 1347-1580): T1 sequence (Q64512 1347-1580)
Procedure: as §1, §2

[7] = target: T5, APC peptide (Homo sapiens); assay: NMR titration
T5 chain: KRHSGSYLVTSV

[8] = target: T6, PRK2 peptide (Homo sapiens); assay: NMR titration
T6 chain: MFRDFDYIADWC

[9] = target: T2, PDZ2 domain of PTPN13; assay: NMR titration of single PDZ3 domain to 15N-enriched PDZ2 domain; type: binding; conditions: 15N-PDZ2, molar ratio 1:1, 2D 1H-15N-HSQC, 298 K; stoichiometry limited by solubility
Procedure: Thus, we titrated the single PDZ3 domain (residues 1491–1579) to the ^15N-enriched PDZ2 domain (residues 1357–1442) and monitored their interaction by recording a series of 2D ^1H-^15N-HSQC NMR spectra (Fig. 4a). […] However, the final maximal stoichiometry of PDZ2 and PDZ3 was approx. 1:1 due to solubility issues.
NMR spectra were acquired at 298 K on Bruker DRX 600 and AVANCE III HD 700 spectrometers. Typically, NMR samples contained 0.1–0.5 mM uniformly ^13C and/or ^15N-enriched protein in PBS buffer at pH 7.4 including 10% D2O [42–44]. All data were processed with either NMRPipe and analyzed with NMR View or TopSpin (www.bruker.com). The backbone assignments were obtained from the BioMagResBank accession numbers 15,199 (PDZ2/3) and 5131 (PDZ2). The interaction between PDZ2 and PDZ3 was analyzed upon titrating PDZ3 to isotopically ^15N-enriched PDZ2 at a molar ratio of 1:1 at 298 K by recording 2D ^1H-^15N-HSQC NMR spectra. In this study, the numbering scheme of the assigned chemical shifts for PDZ2 (5131) and PDZ23 (15199) has been shifted by one residue so that, for example, T30 according to the BMRB entry 5131 now equals T31. […] The differences in backbone ^1H and ^15N NMR chemical shifts were monitored via 2D ^1H-^15N-HSQC NMR spectra. The weighted ^1HN and ^15N chemical shift differences were calculated according to the following equation [45, 47]: […]

CC(=O)N[C@@H](CCCCN)C(=O)N[C@@H](CCCNC(=N)N)C(=O)N[C@@H](Cc1c[nH]cn1)C(=O)N[C@@H](CO)C(=O)NCC(=O)N[C@@H](CO)C(=O)N[C@@H](Cc1ccc(O)cc1)C(=O)N[C@@H](CC(C)C)C(=O)N[C@H](C(=O)N[C@H](C(=O)N[C@@H](CO)C(=O)N[C@H](C(=O)O)C(C)C)[C@@H](C)O)C(C)C [APC]
Kd [1]: ~721 µM and 721 µM
saturation of PDZ2 resonances at end of titration [2]: no further chemical shift changes were observed for amide resonances originating from the PDZ2 domain
NMR chemical shift perturbations of PDZ2 on peptide binding [3]: leads to NMR chemical shift differences observed along intra-domain signal pathways as previously predicted
peptide-induced dimerisation of PDZ2 ([3]; comparison of free and APC-bound NMR spectra of individual PDZ2): exclude an APC-induced dimerisation of PDZ2
binding to single PDZ2 domain [4]: able to bind
NMR chemical shift perturbations of PDZ2/3 tandem on titration ([5]; 2D 1H-15N-HSQC, 298 K, pH 7.4): NMR chemical shift perturbations were observed for G12, L19, T31, G63, H94, L95, L97 of PDZ2 and K152 as well as S231 of PDZ3 in the tandem domain
NMR exchange regime of binding to tandem PDZ2/3 ([5]; 298 K, pH 7.4): fast exchange
chemical shift differences between single PDZ2-APC complex and PDZ2 in PDZ2/3-APC complex ([5]; APC peptide at molar ratio 1:30, single PDZ2 vs PDZ2 in PDZ2/3): Major NMR chemical shift perturbations were observed on the back of the PDZ2 domain, i.e. opposite to the canonical PDZ binding cleft, mainly for EF (H94, L95, L97) and for EA (L19)
saturation of PDZ3 at end of titration [6]: PDZ3 was not fully saturated at the end of the titration

CC[C@H](C)[C@H](NC(=O)[C@H](Cc1ccc(O)cc1)NC(=O)[C@H](CC(=O)O)NC(=O)[C@H](Cc1ccccc1)NC(=O)[C@H](CC(=O)O)NC(=O)[C@H](CCCNC(=N)N)NC(=O)[C@H](Cc1ccccc1)NC(=O)[C@H](CCSC)NC(C)=O)C(=O)N[C@@H](C)C(=O)N[C@@H](CC(=O)O)C(=O)N[C@@H](Cc1c[nH]c2ccccc12)C(=O)N[C@@H](CS)C(=O)O [PRK2] (Ac-MFRDFDYIADWC-OH; C-terminus assumed)
Kd [1]: 318 ± 47 µM
NMR chemical shift perturbations of PDZ2 on peptide binding [3]: NMR chemical shift differences were observed for the canonical ligand binding groove of PDZ2 including G23, S24, which are also involved in peptide recognition, and S28, and G31; also recorded: Additional NMR chemical shift perturbations were observed for the β-strands EA and EF of PDZ2, located opposite to its canonical peptide binding groove

B1: PTPN13 (PDZ3 in PDZ2/3 tandem) PDZ3 in PDZ2/3 (protein)
chain: EVKLFKNSSGLGFSFSREDNLIPEQINASIVRVKKLFPGQPAAESGKIDVGDVILKVNGASLKGLSQQEVISALRGTAPEVFLLLCRP
Kd [7]: 2570 µM

B2: PTPN13 (PDZ2 in PDZ2/3 tandem) PDZ2 in PDZ2/3 (protein)
chain: EVELAKNDNSLGISVTGGVNTSVRHGGIYVKAVIPQGAAESDGRIHKGDRVLAVNGVSLEGATHKQAVETLRNTGQVVHLLLEKG
Kd [7]: 211 µM

B3: PTPN13 PDZ2 (protein)
chain: DIFEVELAKNDNSLGISVTGGVNTSVRHGGIYVKAVIPQGAAESDGRIHKGDRVLAVNGVSLEGATHKQAVETLRNTGQVVHLLLEKGQSP
Kd [8]: 661 µM
Kd [7]: 286 µM

B4: PDZ3: single PDZ3 domain (residues 1491–1579) of PTPN13 (protein, UniProt Q12923 1491-1579, looked up, fragment)
chain: YSFVTEENTFEVKLFKNSSGLGFSFSREDNLIPEQINASIVRVKKLFPGQPAAESGKIDVGDVILKVNGASLKGLSQQEVISALRGTAP
modifications: PDZ3 domain
notes: single PDZ3 domain (residues 1491–1579) of PTPN13
chemical shift differences of PDZ2 upon titration with PDZ3 [9]: Only very minor chemical shift differences could be observed, if at all; also recorded: only yielded minor chemical shift differences; also recorded: Only very minor, if at all, chemical shift differences could be observed
